13 compounds from patent US8455525B2, “Selective androgen receptor modulators” (Radius Health, Inc., priority 2008, dated 2013) can be followed below.

Where a name gives a salt, the structure may show the parent alone.

This test addresses T1, androgen receptor (AR) (Rattus norvegicus, UniProt P15207).
T1 construct: purchased Invitrogen, Madison, Wis
T1 sequence (P15207 651-902 limits assumed): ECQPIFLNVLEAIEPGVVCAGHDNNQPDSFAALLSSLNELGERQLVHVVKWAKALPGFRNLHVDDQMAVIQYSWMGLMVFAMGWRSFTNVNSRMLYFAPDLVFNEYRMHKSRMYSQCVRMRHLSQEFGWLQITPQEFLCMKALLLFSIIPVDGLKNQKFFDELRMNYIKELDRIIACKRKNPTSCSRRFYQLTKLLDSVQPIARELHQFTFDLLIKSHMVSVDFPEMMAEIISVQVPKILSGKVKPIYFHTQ
Briefly: androgen receptor binding assay (fluorescence polarization, Fluormone AL Green competition). The protocol:
The assay was performed as specified by the manufacturer (Invitrogen, Madison, Wis.). Briefly, 1 μl of 10 mM compound was added to 500 μl of AR screening buffer in a 1.5 ml eppendorf tube to make a 2×10^−5M stock. 10-fold serial dilutions of the test compounds were prepared ranging in concentration from 10^−5M to 10^−12M. Each dilution was added in triplicate to a black 384-microtiter plate. The test compounds will be diluted 2-fold in the final reaction. 2×AR-Fluormone™ complex was prepared with 2 nM Flourmone AL Green™ and 30 nM AR. 25 μl of 2× complex was aliquoted to each reaction well, such that the final reaction volume was 50 μl per well. Plate was sealed with a foil cover and incubated in the dark at room temperature for 4 h. Polarization values for each well were measured. The polarization values were plotted against the concentration of the test compound. […] As a control, a competition curve for R1881 (methyltrienolone) was performed for each assay. Curve Fitting was performed using GraphPad Prism® software from GraphPad™ Software Inc. Binding data are reported as a single determination if the experiment was run once only and as the average of experiments if the binding experiment was performed two or more times with that compound.
Where multiple data points have been taken, the value reported is the average of the multiple determinations.
(Fluorescence polarisation rises when a labelled molecule tumbles more slowly, as on binding a larger partner.)
What is called IC50 is the concentration needed to halve the response being measured. As for `Cc1c(N[C@@H](c2nnc(-c3ccc(C#N)cc3)o2)[C@@H](C)O)ccc(C#N)c1C(F)(F)F` [Example 31, 4-((1R,2R)-1-(5-(4-cyanophenyl)-1,3,4-oxadiazol-2-yl)-2-hydroxypropylamino)-3-methyl-2-(trifluoromethyl)benzonitrile], the concentration for half-maximal inhibition (IC50) was found to be 5.9 nM.
Under `Cc1c(N[C@@H](c2nnc(-c3ccc(Cl)c(Cl)c3)o2)[C@@H](C)O)ccc(C#N)c1Cl` [Example 32, 2-Chloro-4-((1R,2R)-1-(5-(3,4-dichlorophenyl)-1,3,4-oxadiazol-2-yl)-2-hydroxypropylamino)-3-methylbenzonitrile] stands 2 nM; under `C[C@H](O)[C@@H](Nc1ccc(C#N)c(Cl)c1Cl)c1nnc(-c2ccccc2)o1` [Example 33, 2,3-dichloro-4-((1R,2S)-2-hydroxy-1-(5-phenyl-1,3,4-oxadiazol-2-yl)propylamino)benzonitrile], 15 nM.
Take `C[C@H](O)[C@@H](Nc1ccc(C#N)c(Cl)c1Cl)c1nnc(-c2ccc(Cl)cc2)o1` [Example 34, 2,3-Dichloro-4-((1R,2S)-1-(5-(4-chlorophenyl)-1,3,4-oxadiazol-2-yl)-2-hydroxypropylamino)benzonitrile]: the 50% inhibitory concentration (IC50) worked out at 4 nM.
For `Cc1c(N[C@@H](c2nnc(-c3ccc(F)cc3F)o2)[C@@H](C)O)ccc(C#N)c1Cl` [Example 35, 2-Chloro-4-((1R,2R)-1-(5-(2,4-difluorophenyl)-1,3,4-oxadiazol-2-yl)-2-hydroxypropylamino)-3-methylbenzonitrile] the value was 0.2 nM; for `Cc1c(N[C@@H](c2ncc(-c3ccccc3)o2)[C@H](C)O)ccc(C#N)c1Cl` [Example 36, 2-Chloro-4-((1R,2S)-2-hydroxy-1-(5-phenyloxazol-2-yl)propylamino)-3-methylbenzonitrile], 12 nM; for `Cc1c(N[C@@H](c2nnc(-c3ccc(O)c(Cl)c3)o2)[C@H](C)O)ccc(C#N)c1Cl` [Example 37, 2-Chloro-4-((1R,2S)-1-(5-(3-chloro-4-hydroxyphenyl)-1,3,4-oxadiazol-2-yl)-2-hydroxypropylamino)-3-methylbenzonitrile], 0.2 nM.
With `Cc1c(N[C@@H](c2nnc(-c3ccc(F)c(F)c3)o2)[C@@H](C)O)ccc(C#N)c1Cl` [Example 39, 2-Chloro-4-((1R,2R)-1-(5-(3,4-difluorophenyl)-1,3,4-oxadiazol-2-yl)-2-hydroxypropylamino)-3-methylbenzonitrile], the IC50 turned out to be 0.1 nM.
Under `Cc1c(N[C@@H](c2nnc(-c3ccc(F)c(O)c3)o2)[C@H](C)O)ccc(C#N)c1Cl` [Example 40, 2-Chloro-4-((1R,2S)-1-(5-(4-fluoro-3-hydroxyphenyl)-1,3,4-oxadiazol-2-yl)-2-hydroxypropylamino)-3-methylbenzonitrile] stands 0.2 nM; under `Cc1c(N[C@@H](c2nnc(-c3ccc(F)c(O)c3)o2)[C@@H](C)O)ccc(C#N)c1Cl` [Example 41, 2-Chloro-4-((1R,2R)-1-(5-(4-fluoro-3-hydroxyphenyl)-1,3,4-oxadiazol-2-yl)-2-hydroxypropylamino)-3-methylbenzonitrile], 0.02 nM.
For `Cc1c(N[C@@H](c2nnc(-c3ccc(C#N)cc3)o2)[C@H](C)O)ccc(C#N)c1C(F)(F)F` [Example 42, 4-((1R,2S)-1-(5-(4-Cyanophenyl)-1,3,4-oxadiazol-2-yl)-2-hydroxypropylamino)-3-methyl-2-(trifluoromethyl)benzonitrile] the value was 9 nM; for `Cc1nnc([C@H](Nc2ccc(C#N)c(Cl)c2C)[C@H](C)O)o1` [Example 43, 2-Chloro-4-((1R,2S)-2-hydroxy-1-(5-methyl-1,3,4-oxadiazol-2-yl)propylamino)-3-methylbenzonitrile hydrochloride], 3 nM.
Under `C[C@@H](O)[C@@H](Nc1ccc(C#N)c(C(F)(F)F)c1)c1nnc(-c2ccc(C#N)cc2)o1` [Example 44, 4-((1R,2R)-1-(5-(4-Cyanophenyl)-1,3,4-oxadiazol-2-yl)-2-hydroxypropylamino)-2-(trifluoro-methyl)benzonitrile] stands 5 nM.
